# Where two headings read alike, the source gives them in different places.
# Columns and labels:
# Mouse = conditions: pretreatment with GSH; cited from earlier work
# [1] = test system: systolic and diastolic blood pressure; conditions: cited from earlier work
# [2] = human, in vivo, iv; cited from earlier work
# guinea pigs = conditions: non-ascorbate deficient animals, double the dose of 3.75 mmol/kg daily; cited from earlier work
# in vivo = conditions: po
# From the text: Once past the stomach, it is important that the glutathione be immediately available for absorption, as the desulfurases and peptidases from the pancreas, as well as the increase in pH, do tend to degrade the glutathione. […] Thus, by providing a high concentration of glutathione in the duodenum, without substantial dilution, the glutathione may be absorbed at a maximum rate.
smiles,measurement,setting,value
"N[C@@H](CCC(=O)N[C@@H](CS)C(=O)NCC(=O)O)C(=O)O [GSH, gamma-glutamyl-cysteinyl-glycine]",effect on morphine-induced lethality,Mouse,protects against morphine-induced lethality
same,time of return of blood pressure to baseline,"[1]; 1,844 mg i.v. bolus",≤ 30 min
same,blood pressure effect,"[1]; 1,844 mg i.v. bolus, hypertensive patients and non-hypertensive diabetics",rapid and significant decrease in both systolic and diastolic blood pressure
same,blood pressure effect,"[1]; 1,844 mg i.v. bolus, normal healthy subjects",no effect
same,blood pressure effect,"[1]; 3,699 mg dose, normal subjects",significant decrease in the blood pressure values
same,half-life,[2],14.1−9.2 minutes
same,volume of distribution of exogenous glutathione,[2],176−107 Ml/Kg
same,toxicity,guinea pigs,seen at double this dose
same,bioavailability,in vivo,~90%
